Values belong to the compound of their own block, whether it stands above or below them.
Tests used:
[1] = test system: D3; d(CCCTAGGG)2 (DNA, duplex) CCCTAGGG; experiment: 2D NMR (NOESY) and restrained MD structure; details: Na+ 10 mM (NaCl); 2.5 mM cacodylate pH 5.0; 5 °C; intercalation at TA/TA
[2] = test system: B2; d(CGCTAGCG)2 (DNA, duplex) CGCTAGCG; experiment: UV-VIS titration, chemometric (PCA) Scatchard analysis; details: Na+ 10 mM (NaCl); 2.5 mM cacodylate pH 5.0; 0.01 mM ligand; microscopic constant
[3] = test system: B3; D2; d(CGATATCG)2 (DNA, duplex) CGATATCG; experiment: 2D NMR (NOESY) and restrained MD structure; details: Na+ 10 mM (NaCl); 2.5 mM cacodylate pH 5.0; 5 °C; intercalation at TA/TA
D1 (DNA, duplex) CCCGGG = experiment: 1H NMR; details: Na+ 10 mM (NaCl); 2.5 mM cacodylate pH 5.0; intercalation at CG/CG
[4] = test system: D8 (DNA, duplex) CTAGCTAG; experiment: 1H NMR; details: Na+ 10 mM (NaCl); 2.5 mM cacodylate pH 5.0; intercalation at TA/TA
[5] = test system: B3; D2; d(CGATATCG)2 (DNA, duplex) CGATATCG; experiment: UV-VIS titration, chemometric (PCA) Scatchard analysis; details: Na+ 10 mM (NaCl); 2.5 mM cacodylate pH 5.0; 0.01 mM ligand; microscopic constant
[6] = test system: D7 (DNA, duplex) GTACGTAC; experiment: 1H NMR; details: Na+ 10 mM (NaCl); 2.5 mM cacodylate pH 5.0; intercalation at TA/TA
[7] = test system: B1; d(CGGTACCG)2 (DNA, duplex) CGGTACCG; experiment: UV-VIS titration, chemometric (PCA) Scatchard analysis; details: Na+ 10 mM (NaCl); 2.5 mM cacodylate pH 5.0; 0.01 mM ligand; microscopic constant
[8] = test system: D4 (DNA, duplex) GGGTACCC; experiment: 1H NMR; details: Na+ 10 mM (NaCl), 2.5 mM cacodylate pH 5.0
[9] = test system: B3; D2; d(CGATATCG)2 (DNA, duplex) CGATATCG; experiment: 1H NMR titration; details: Na+ 10 mM (NaCl), 2.5 mM cacodylate pH 5.0, unspecific
[10] = test system: B2; d(CGCTAGCG)2 (DNA, duplex) CGCTAGCG; experiment: 2D NMR (NOESY) and restrained MD structure; details: Na+ 10 mM (NaCl); 2.5 mM cacodylate pH 5.0; 5 °C; intercalation at TA/TA
[11] = test system: B4; d(CGTTAACG)2 (DNA, duplex) CGTTAACG; experiment: UV-VIS titration, chemometric (PCA) Scatchard analysis; details: Na+ 10 mM (NaCl); 2.5 mM cacodylate pH 5.0; 0.01 mM ligand; microscopic constant
[12] = unspecific, no intercalation site, duplex:ligand 1:1.5

Dissociation constant [2]: 0.260 µM | binding (D1 (DNA, duplex) CCCGGG): yes | binding [4]: yes | Dissociation constant [5]: 0.156 µM | binding [6]: yes | Dissociation constant [7]: 0.524 µM | binding ([8]; intercalation at TA/TA): yes
SMILES: CCN(CC)CCNc1ccc2ncn3c4ccc(O)cc4c(=O)c1c23
binding [1]: yes | binding [3]: yes

binding ([9]; presumably minor groove at centre, no defined intercalation): weak | binding [8, 12]: weak
SMILES: CN(C)CCCNc1c2ccccc2nc2cccc([N+](=O)[O-])c12

Dissociation constant [2]: 0.227 µM | Dissociation constant [5]: 0.608 µM | Dissociation constant [11]: 0.248 µM | Dissociation constant [7]: 0.145 µM
SMILES: CN(C)CCCNc1ccc2nnn3c4ccc(O)cc4c(=O)c1c23
binding [10]: yes

binding ([9]; weaker than C-283): weak | binding [8, 12]: weak
SMILES: Cc1ccc([N+](=O)[O-])c2c(NCCO)c3ccccc3nc12

From PMC9977845 (2023)
